The record followed here is patent US20070299091A1, “Azaindole Carboxamides” (priority 2004, published 2007).

One data set concerns the target T1, D1-receptor (Sus scrofa, UniProt P50130).
T1 construct: native membrane homogenates, obtained from porcine striatum; from tissue; host or cells: porcine striatum
In words: radioligand binding, D1 receptor, [3H]SCH 23390, porcine striatum membrane homogenates. To be noted: porcine D1, [3H]SCH 23390; average of 2-6 experiments in triplicate. As to the method: (§1) The biological activities of the compounds according to the invention were determined in radioligand bonding investigations. All radioligand experiments were performed according to methods described by us (Hübner, H. et al. J. Med. Chem. 2000, 43, 756-762). For the measurement of the affinities to the receptors of the D2-family membrane homogenates of Chinese hamster ovary cells (CHO cells) were used, which stably express the human D2long-, the human D2short- (Hayes, G. et al. Mol. Endocrinol. 1992, 6, 920-926), the human D3- (Sokoloff, P. et al. Eur. J. Pharmacol. 1992, 225, 331-337) or the human D4.4-receptor sub-type, (Asghari, V. J. Neurochem. 1995, 65,1157-1165) respectively. Basically the binding assays took place by incubation of the receptor homogenates with the radioligand [^3H]spiperone and the compounds under investigation in various concentrations. Determination of the affinities to the D1-receptor took place with native membrane homogenates, obtained from porcine striatum, and the D1-selective radioligands [^3H]SCH 23390.

Another data set deals with T2, human D2long (Homo sapiens, UniProt P14416).
T2 construct: expressed in transfected cells
In words: radioligand binding, [3H]spiperone, CHO cell membrane homogenates expressing human D2long. To be noted: for Ki: human D2long, [3H]spiperon, average of 2-6 experiments in triplicate; for D3-selectivity D2long/D3: ratio of Ki values D2long/D3. As to the method: (§2) The biological activities of the compounds according to the invention were determined in radioligand bonding investigations. […] Mol. […] Neurochem. […] Basically the binding assays took place by incubation of the receptor homogenates with the radioligand [^3H]spiperone and the compounds under investigation in various concentrations.

The target of another data set is T3, human D2short (Homo sapiens, UniProt P14416).
T3 construct: expressed in transfected cells
In words: radioligand binding, [3H]spiperone, CHO cell membrane homogenates expressing human D2short. To be noted: for Ki: human D2short, [3H]spiperon, average of 2-6 experiments in triplicate; for D3-selectivity D2short/D3: ratio of Ki values D2short/D3. As for the experimental part: as §2

In a further data set the target is T4, human D3 (Homo sapiens, UniProt P35462).
T4 construct: expressed in transfected cells
The experiment in a line: radioligand binding, [3H]spiperone, CHO cell membrane homogenates expressing human D3. To be noted: human D3, [3H]spiperon; average of 2-6 experiments in triplicate. As for the experimental part: as §1

Another data set addresses T5, human D4.4-receptor (Homo sapiens, UniProt P21917).
T5 construct: expressed in transfected cells
T5 sequence (P21917 1-419): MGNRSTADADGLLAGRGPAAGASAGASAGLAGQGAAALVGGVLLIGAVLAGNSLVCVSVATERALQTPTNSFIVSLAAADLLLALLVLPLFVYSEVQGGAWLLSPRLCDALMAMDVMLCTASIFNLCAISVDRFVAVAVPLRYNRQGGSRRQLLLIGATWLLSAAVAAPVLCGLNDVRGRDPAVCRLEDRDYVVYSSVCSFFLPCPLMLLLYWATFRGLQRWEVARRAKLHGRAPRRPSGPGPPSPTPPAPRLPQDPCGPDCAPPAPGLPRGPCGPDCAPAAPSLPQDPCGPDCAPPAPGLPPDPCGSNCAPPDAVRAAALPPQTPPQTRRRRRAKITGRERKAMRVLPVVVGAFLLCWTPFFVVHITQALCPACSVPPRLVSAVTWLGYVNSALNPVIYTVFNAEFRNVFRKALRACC
In words: radioligand binding, [3H]spiperone, CHO cell membrane homogenates expressing human D4.4. To be noted: for Ki: human D4.4, [3H]spiperon, average of 2-6 experiments in triplicate; for D3-selectivity D4.4/D3: ratio of Ki values D4.4/D3. As for the experimental part: as §2

For the next data set, the target named is T6, dopamine-D3-receptor (Homo sapiens, UniProt P35462).
T6 construct: expressed in transfected cells
The experiment in a line: mitogenesis assay, [3H]thymidine incorporation in D3 receptor-expressing cells. To be noted: for EC50: dose-effect curve from average values of all individual trials, seven concentrations in quadruplicate; for classification of intrinsic activity at the D3-receptor: mitogenesis assay, compared with full agonist quinpirol; for agonistic activity: with reference to the maximum effect of the full agonist Quinpirol. The data set is classed as cell-based. As to the method: Here various concentrations of the compound under investigation were incubated with D3 receptor-expressing cells and then the receptor-mediated stimulation of the mitogenesis rate was measured by incorporation of the radioactive marker [^3H]thymidine.
(In general: Uptake of a labelled nucleoside into DNA is a usual measure of proliferation.)

For data set [1], the target named is T7, 5-HT1A (Sus scrofa, UniProt A0A4X1UTF5).
T7 construct: we incubated porcine cortex-membrane preparations with the radioligands; from tissue; host or cells: porcine cortex
T7 sequence (A0A4X1UTF5 1-422): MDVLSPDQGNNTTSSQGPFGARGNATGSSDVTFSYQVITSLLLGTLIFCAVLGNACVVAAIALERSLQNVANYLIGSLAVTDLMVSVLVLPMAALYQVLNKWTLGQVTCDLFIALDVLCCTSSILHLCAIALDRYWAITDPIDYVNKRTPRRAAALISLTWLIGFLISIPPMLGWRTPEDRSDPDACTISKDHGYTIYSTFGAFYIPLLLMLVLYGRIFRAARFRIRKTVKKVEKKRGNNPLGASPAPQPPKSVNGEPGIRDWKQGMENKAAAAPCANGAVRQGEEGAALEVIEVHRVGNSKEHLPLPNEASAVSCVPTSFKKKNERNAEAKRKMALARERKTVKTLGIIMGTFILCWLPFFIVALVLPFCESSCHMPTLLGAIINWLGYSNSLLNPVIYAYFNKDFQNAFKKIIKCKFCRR
In words: radioligand binding, [3H]8-OH-DPAT, porcine cortex-membrane preparations. To be noted: porcine 5-HT1A, [3H]8-OH-DPAT; average of 2 experiments in triplicate. As for the experimental part:
(§3) Measurement of the bonding strengths of the compounds to the serotonin-receptor subtypes 5-HT1A and 5-HT2 was carried out according to methods described by us (Heindl, C. et al. Tetrahedron: Asymmetry 2003, 14, 3141-3152). For this we incubated porcine cortex-membrane preparations with the radioligands [^3H]8-OH-DPAT (for 5-HT1A) or [^3H]ketanserin (5-HT2) and the compounds in various concentrations. In the same way the affinity of the test compounds to the porcine α1-receptor was investigated, wherein porcine cortex-membrane preparations and the α1-selective radioligand [^3H]prazosin were used.

For data set [2], the system named is 5-HT1A. The data set is described as above. To be noted: ratio of Ki values 5-HT1A/D3. As to the method: as §3
The target of the next data set is 5-HT2 (Sus scrofa, UniProt P50129). The experiment in a line: radioligand binding, [3H]ketanserin, porcine cortex-membrane preparations. To be noted: for Ki: porcine 5-HT2, [3H]ketanserin, average of 2 experiments in triplicate; for D3-selectivity 5-HT2/D3: ratio of Ki values 5-HT2/D3. As for the experimental part: as §3
In data set [3] the test system is porcine α1-receptor. In words: radioligand binding, [3H]prazosin, porcine cortex-membrane preparations. To be noted: ratio of Ki values α1/D3. As to the method:
as §3

Data set [4] has as its target T8, porcine α1-receptor.
T8 construct: Ki-values α1; other: porcine α1, [3H]prazosin; average of 2 experiments in triplicate
The data set is described as above. To be noted: porcine α1, [3H]prazosin; average of 2 experiments in triplicate. As to the method: as §3

T4 sequence (P35462 whole entry): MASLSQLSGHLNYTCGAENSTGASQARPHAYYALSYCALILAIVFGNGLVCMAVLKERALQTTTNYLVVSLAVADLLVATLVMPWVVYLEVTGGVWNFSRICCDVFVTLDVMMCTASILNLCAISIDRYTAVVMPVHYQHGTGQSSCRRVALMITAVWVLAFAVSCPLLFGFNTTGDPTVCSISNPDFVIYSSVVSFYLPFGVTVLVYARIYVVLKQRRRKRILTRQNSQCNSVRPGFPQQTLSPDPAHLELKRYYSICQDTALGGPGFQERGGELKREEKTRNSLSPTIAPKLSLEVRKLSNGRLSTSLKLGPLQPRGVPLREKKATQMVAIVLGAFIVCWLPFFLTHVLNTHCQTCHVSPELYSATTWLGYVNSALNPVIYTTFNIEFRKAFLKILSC
T6 sequence (P35462 whole entry): as above
Sequence of 5-HT2 (P50129 whole entry): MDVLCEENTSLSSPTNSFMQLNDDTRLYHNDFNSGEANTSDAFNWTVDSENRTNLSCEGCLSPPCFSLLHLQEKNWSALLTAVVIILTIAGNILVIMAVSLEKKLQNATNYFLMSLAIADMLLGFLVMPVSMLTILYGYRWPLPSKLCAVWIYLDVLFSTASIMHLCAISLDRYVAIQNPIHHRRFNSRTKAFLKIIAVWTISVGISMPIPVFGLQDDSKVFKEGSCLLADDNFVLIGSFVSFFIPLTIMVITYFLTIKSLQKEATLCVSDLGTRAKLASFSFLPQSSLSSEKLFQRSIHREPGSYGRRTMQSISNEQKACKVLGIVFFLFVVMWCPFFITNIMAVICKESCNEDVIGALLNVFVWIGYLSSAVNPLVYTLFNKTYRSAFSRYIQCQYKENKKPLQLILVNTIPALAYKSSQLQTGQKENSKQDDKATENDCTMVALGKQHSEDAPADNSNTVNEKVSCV
T2 sequence (P14416 whole entry): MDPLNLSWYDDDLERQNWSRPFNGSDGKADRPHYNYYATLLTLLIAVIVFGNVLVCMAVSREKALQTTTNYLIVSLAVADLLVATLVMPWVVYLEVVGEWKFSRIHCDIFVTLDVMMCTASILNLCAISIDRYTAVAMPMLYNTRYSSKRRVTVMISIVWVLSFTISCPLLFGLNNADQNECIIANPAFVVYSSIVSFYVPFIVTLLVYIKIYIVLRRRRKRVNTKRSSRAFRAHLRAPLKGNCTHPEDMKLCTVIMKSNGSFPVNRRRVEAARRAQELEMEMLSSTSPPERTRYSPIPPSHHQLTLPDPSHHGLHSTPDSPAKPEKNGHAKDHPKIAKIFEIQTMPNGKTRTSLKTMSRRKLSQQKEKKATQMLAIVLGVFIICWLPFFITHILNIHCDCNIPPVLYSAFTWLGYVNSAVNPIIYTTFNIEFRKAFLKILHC
T1 sequence (P50130 whole entry): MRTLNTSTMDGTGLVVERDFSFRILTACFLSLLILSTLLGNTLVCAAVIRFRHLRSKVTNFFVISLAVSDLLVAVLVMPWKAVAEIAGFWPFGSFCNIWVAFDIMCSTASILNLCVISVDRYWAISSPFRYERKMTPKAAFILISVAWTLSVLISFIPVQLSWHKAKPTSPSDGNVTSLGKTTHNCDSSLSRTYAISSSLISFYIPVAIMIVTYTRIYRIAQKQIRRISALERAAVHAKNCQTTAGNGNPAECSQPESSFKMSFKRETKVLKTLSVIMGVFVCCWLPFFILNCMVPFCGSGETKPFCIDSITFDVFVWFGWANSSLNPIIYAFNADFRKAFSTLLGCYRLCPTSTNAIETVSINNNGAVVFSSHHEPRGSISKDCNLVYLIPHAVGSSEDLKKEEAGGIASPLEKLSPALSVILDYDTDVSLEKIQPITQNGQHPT
T3 sequence (P14416 1-414 isoform P14416-2): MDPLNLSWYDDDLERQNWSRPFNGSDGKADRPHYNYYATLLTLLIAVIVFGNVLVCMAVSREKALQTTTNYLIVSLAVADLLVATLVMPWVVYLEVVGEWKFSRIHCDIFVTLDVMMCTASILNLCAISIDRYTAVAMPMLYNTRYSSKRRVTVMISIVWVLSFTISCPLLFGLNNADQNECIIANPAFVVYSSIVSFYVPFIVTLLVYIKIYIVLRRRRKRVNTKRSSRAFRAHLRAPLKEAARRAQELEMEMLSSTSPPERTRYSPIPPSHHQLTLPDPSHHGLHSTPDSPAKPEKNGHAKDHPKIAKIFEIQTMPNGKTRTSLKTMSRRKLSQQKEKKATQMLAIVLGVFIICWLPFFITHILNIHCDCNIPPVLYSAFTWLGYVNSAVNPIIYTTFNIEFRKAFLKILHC

As to `COc1ccccc1N1CCN(CCCCNC(=O)c2cc3cccnc3[nH]2)CC1` [Example 1, N-(4-(4-(2-methoxyphenyl)piperazin-1-yl)butyl)-1H-pyrrolo[2,3-b]pyridin-2-ylcarbamide], the melting point (in general, the temperature of the solid-liquid transition) was 117 °C. For the same compound, the affinity at D1-receptor corresponds to a Ki of 1500 nM. Further, on human D2long, the Ki (usually the dissociation constant of the complex between target and ligand, obtained from inhibition or displacement) was 58 nM; the “D3-selectivity D2long/D3” value was determined as 71. Further, at human D2short, the Ki was 42 nM and the “D3-selectivity D2short/D3” value is on record as 51. Further, the Ki on human D3 came to 0.82 nM. Moreover, at human D4.4-receptor, the Ki was 32 nM and the “D3-selectivity D4.4/D3” value is 39. On dopamine-D3-receptor, the EC50 (in general, the concentration giving half of the maximal effect) came to 0.96 nM; the “classification of intrinsic activity at the D3-receptor” value (“classification of intrinsic activity” for short) is recorded as “weakly partially agonistic”; the agonistic activity was 14%. At 5-HT1A [1], this compound registered a Ki of 23 nM. Moreover, in the data set on 5-HT1A [2], the “D3-selectivity 5-HT1A/D3” value amounted to 28. Besides, the Ki on 5-HT2 came to 340 nM. Also, in the data set with porcine α1-receptor [3], the “D3-selectivity α1/D3” value was determined as 1.6. This compound also registered an inhibition constant Ki at porcine α1-receptor [4] of 1.3 nM.
Compound `O=C(NCCCCN1CCN(c2cccc(Cl)c2Cl)CC1)c1cc2cccnc2[nH]1` [Example 3, N-(4-(4-(2,3-dichlorophenyl)piperazin-1-yl)butyl)-1H-pyrrolo[2,3-b]pyridin-2-ylcarbamide] had a melting point of 232 °C. The same compound had an inhibitory constant (Ki) at D1-receptor of 440 nM. In addition, at human D2long, the Ki is 19 nM and the “D3-selectivity D2long/D3” value turned out to be 150. For the same compound, on human D2short, the Ki was found to be 6.5 nM and the “D3-selectivity D2short/D3” value is listed as 34. The Ki at human D3 was found to be 0.13 nM. At human D4.4-receptor, the Ki was determined as 42 nM and the “D3-selectivity D4.4/D3” value was 320. Further, at dopamine-D3-receptor, the EC50 was found to be 1.3 nM, the “classification of intrinsic activity” value was “partial agonist” and the agonistic activity is listed as 41%. Further, the Ki at 5-HT1A [1] came out at 24 nM. In addition, the “D3-selectivity 5-HT1A/D3” value with 5-HT1A [2] stood at 180. Further, on 5-HT2, the Ki was 63 nM and the “D3-selectivity 5-HT2/D3” value was 480. The “D3-selectivity α1/D3” value in the data set on porcine α1-receptor [3] is reported as 28. The same compound gave a Ki at porcine α1-receptor [4] of 3.6 nM.
Regarding `COc1ccccc1N1CCN(CCCCNC(=O)c2cc3cccnc3n2S(=O)(=O)c2ccccc2)CC1` [Example 2, N-(4-(4-(2-methoxyphenyl)piperazin-1-yl)butyl)-1-phenylsulfonyl-1H-pyrrolo[2,3-b]pyridin-2-ylcarbamide], the melting point was 166 °C. Affinity on D1-receptor was put at a Ki of 1300 nM. Further, at human D2long, the affinity corresponds to a Ki of 180 nM and the “D3-selectivity D2long/D3” value is on record as 19. Moreover, on human D2short, the Ki was determined as 110 nM and the “D3-selectivity D2short/D3” value came to 12. The compound further came in with a Ki on human D3 of 9.3 nM. In addition, at human D4.4-receptor, the Ki turned out to be 130 nM and the “D3-selectivity D4.4/D3” value stood at 14. For the same compound, on dopamine-D3-receptor, the EC50 was found to be 7.9 nM, the “classification of intrinsic activity” value is reported as “weakly partially agonistic” and the agonistic activity is 12%. Moreover, the affinity at 5-HT1A [1] corresponds to a Ki of 14 nM. Moreover, the “D3-selectivity 5-HT1A/D3” value in the data set on 5-HT1A [2] is recorded as 1.5. At 5-HT2, the Ki is 1100 nM and the “D3-selectivity 5-HT2/D3” value came to 120. Also, the “D3-selectivity α1/D3” value in the data set on porcine α1-receptor [3] was determined as 0.49. In addition, on porcine α1-receptor [4], the affinity corresponds to a Ki of 4.6 nM.
For the compound `O=C(NCCCCN1CCN(c2cccc(Cl)c2Cl)CC1)c1cc2cccnc2n1S(=O)(=O)c1ccccc1` [Example 4, N-(4-(4-(2,3-dichlorophenyl)piperazin-1-yl)butyl)-1-phenylsulfonyl-1H-pyrrolo[2,3-b]pyridin-2-ylcarbamide], the melting point stood at 82 °C. On D1-receptor, this compound displayed a Ki of 680 nM. Further, at human D2long, the affinity, expressed as Ki, was 68 nM and the “D3-selectivity D2long/D3” value came to 85. Further, on human D2short, the Ki worked out at 39 nM and the “D3-selectivity D2short/D3” value stood at 49. On human D3, this compound returned a Ki of 0.8 nM. At human D4.4-receptor, the Ki was 110 nM and the “D3-selectivity D4.4/D3” value came out at 140. For the same compound, at dopamine-D3-receptor, the EC50 came to 2.1 nM, the “classification of intrinsic activity” value is recorded as “weakly partially agonistic” and the agonistic activity came out at 16%. Moreover, affinity on 5-HT1A [1] was put at a Ki of 16 nM. The “D3-selectivity 5-HT1A/D3” value in the data set on 5-HT1A [2] is on record as 20. In addition, at 5-HT2, the Ki was 200 nM and the “D3-selectivity 5-HT2/D3” value turned out to be 250. In the data set with porcine α1-receptor [3], the “D3-selectivity α1/D3” value worked out at 26. Moreover, on porcine α1-receptor [4], the Ki turned out to be 21 nM.
